{"source": "patent US7005447B2", "about": "“Food product comprising hydroxymatairesinol” (Hormos Nutraceutical Oy Ltd., priority 1999, dated 2006)", "key": {"[1]": {"assay": "Superoxide anion scavenging (xanthine-xanthine oxidase system, chemiluminescence)", "assay_type": "biochemical", "conditions": "read-out: Superoxide anion scavenging, IC-50", "experimental": "Superoxide anion scavenging method was based on the superoxide anion produced in controlled conditions by xanthine-xanthine oxidase system and detection of the generated reactive oxygen species by luminometer (Ahotupa et al., 1997). The ability of test compounds to decrease the chemiluminescence was evaluated. IC-50 concentration (concentration which prevented the chemiluminescence by 50%) was calculated."}, "[2]": {"tested_on": "intact and hypoandrogenic Noble strain male rats", "assay": "Estrogenic and antiestrogenic activity in adult male rats (intact and hypoandrogenic)", "assay_type": "in vivo, rat", "conditions": "for Body weight / Coaculating gland relative weight / Seminal vesicle relative weight / Testis relative weight / Ventral Prostate relative weight: HMR 50 mg/kg daily; for Body weight / Coaculating gland relative weight / Seminal vesicle relative weight / Testis relative weight / Ventral Prostate relative weight / Pituitary LH (μg/pit) / Serum LH / Serum testosterone / Testis testosterone (ng/testis): four weeks, mean ± SD; for Pituitary LH (μg/pit) / Serum LH / Serum testosterone / Testis testosterone (ng/testis): 50 mg/kg HMR", "experimental": "Estrogenic (antiandrogenic) and antiestrogenic effects of HMR were studied in intact and hypoandrogenic Noble strain male rats (age 6–9 month), correspondingly. The chronic hypoandrogenic state with both structural and functional changes in the male reproductive tract was induced by neonatal estrogenization (diethylstilbestrol, 10.0 μg/kg body weight in rape oil s.c. on postnatal days 1–5). These changes are known to be partly reversible by aromatase inhibitor treatment consisting daily dose of MPV-2213 ad 10–30 mg/kg body weight (Streng et al. unpublished observations).\nTwelve of both intact and hypoandrogenic animals were cavaged in daily dosage of HMR 50 mg/kg body weight in rape oil. Another twelve animals from both animal models were cavaged with rape oil only as a placebo treatment. After four-week treatment the animals were sacrificed. The weights of testis and accessory sex glands (ventral prostate, seminal vesicles and coagulating gland) were measured. Serum and testis testosterone and pituitary and serum luteinizing hormone (LH) levels were measured by immunoassays (Haavisto et al. 1993)."}, "[3]": {"tested_on": "DMBA-induced mammary gland tumors", "assay": "Antitumor activity in rat DMBA-induced mammary cancer model", "assay_type": "in vivo", "experimental": "Antitumor activity of HMR in rat mammary cancer was studied as described earlier ([…] et al. 1986). Fifty-day-old female Sprague-Dawley rats were given 12.0 mg DMBA (dimethylbentz[a]anthracene) by […]. After approximately 6 weeks palpable tumors could be detected, whereafter the width (w) and the length (1) of the tumors were measured once a week to determine the tumor volumes according to a formula V=(πw^2 l)/12. The rats were also weighed once a week. The rats were allocated in 3 different groups so that the total number of tumors in the beginning of the experiment was similar in each group: (1) Control group 8 animals, (2) HMR 3.0 mg/kg 7 animals, and (3) HMR 15.0 mg/kg 7 animals, one of which had to be killed before the end of the experiment. HMR was given per os starting 9 weeks after the DMBA-induction, i.e. 3 weeks after palpable tumors appeared, and was given daily for 7.5 weeks. At the end of the experiment the tumors were classified in groups according to their growth pattern: 1. Growing tumors (PD=progressive disease); 2. Non-growing, stabilized tumors (SD=stabilized disease, no change in tumor volume or regression less than 75%; 3. Regressing tumors (PR=partial response, regression of tumor volume more than 75%); 4. Disappeared tumors (CR=complete response, no palpable tumor)."}, "[4]": {"assay": "Analysis of metabolites from rat urine after different doses of HMR (GC-MS)", "assay_type": "in vivo", "conditions": "24 hour urine", "experimental": "Ten Sprague—Dawley male rats (age 4 month) were used to study the metabolism of HMR in vivo. Animals were housed in pairs with 12 h light:dark cycle and had free access to water and soy-free basal diet (SDS, Whitham Essex, England) during the metabolism study.\nRats were cavaged with HMR dissolved in 10% ethanol in PEG in doses 3, 15, 25 and 50 mg/kg body weight once a day for two days. After second cavaging the 24 hour urine was collected in metabolic cages in collection jars containing 120 μl 0.56 M ascorbic acid and 120 μl 0.15 M Na-azide as preservatives. The centrifuged urine volumes were measured and stored in −20° C. For pretreatment 750 μl 0.2 M acetate buffer (pH 4.0±0.1) was added to 3.0 ml thawed urine aliquots. Sep-Pak C18 columns (100 mg silica based resin/column) were used for urine extractions. Columns were preconditioned with 3.0 ml H2O, 3.0 ml methanol and 3.0 ml acetate buffer. After urine had filtered through the column and washed with 3.0 ml of acetate buffer polyphenolics were eluted with 3.0 ml methanol. The eluate was evaporated to dryness under nitrogen in +45° C. water bath and dryed residues were redissolved in 3.0 ml of 0.2 M acetate buffer. 30 μl Helix pomatia enzyme mix was added and the solutions were incubated in +37° C. to hydrolyze both glucuronides and sulfates. 300 μl of flavone stock solution (100 μg/ml in EtOH) was added into hydrolyzed samples. The samples were extracted in C-18 columns and evaporated to dryness as described above and stored in −20° C. until analyzed with GC-MS.\nThe evaporated urine samples were dissolved in pyridine, and silylated by adding BSTFA:TMCS (10:1) silylation reagent. The GC-MS analyses of the silylated samples were performed with an HP 6890-5973 GC-MS instrument. The GC column was an HP-1 crosslinked methyl polysiloxane column (15 m×0.25 mm i.d., 0.25 μm film thickness). Helium was used as carrier gas at a flow of 1 ml/min. […] The quantitative calculations were based on uncorrected peak areas of target components relative to the internal standard."}, "[5]": {"conditions": "control and hypoandrogenic animals, 4-week treatment, versus placebo"}}, "data": [{"compound": "COc1cc(CC2C(=O)OCC2C(O)c2ccc(O)c(OC)c2)ccc1O", "note": "(centres unmarked) [HMR, hydroxymatairesinol]", "values": [{"measurement": "IC50", "setting": "[1]", "value": 5.6, "unit": "µM"}, {"measurement": "Changes in testosterone or LH concentrations", "setting": "[2]; [5]", "value": "no significant changes"}, {"measurement": "Changes in the weights of accessory sex glands and testis", "setting": "[2]; [5]", "value": "no significant changes"}, {"measurement": "Body weight", "setting": "[2]; hypoandrogenemic (neonatally estrogenized) male rats", "value": "455 ± 36", "unit": "g"}, {"measurement": "Coaculating gland relative weight", "setting": "[2]; hypoandrogenemic male rats", "value": "70 ± 30", "unit": "mg/kg body weight"}, {"measurement": "Seminal vesicle relative weight", "setting": "[2]; hypoandrogenemic male rats", "value": "266 ± 49", "unit": "mg/kg body weight"}, {"measurement": "Testis relative weight", "setting": "[2]; hypoandrogenemic male rats", "value": "3276 ± 327", "unit": "mg/kg body weight"}, {"measurement": "Ventral Prostate relative weight", "setting": "[2]; hypoandrogenemic male rats", "value": "378 ± 198", "unit": "mg/kg body weight"}, {"measurement": "Pituitary LH (μg/pit)", "setting": "[2]; hypoandrogenic male rats", "value": "7.530 ± 2.286", "unit": "μg/pit"}, {"measurement": "Serum LH", "setting": "[2]; hypoandrogenic male rats", "value": "0.854 ± 0.333", "unit": "ng/mL"}, {"measurement": "Serum testosterone", "setting": "[2]; hypoandrogenic male rats", "value": "0.939 ± 0.431", "unit": "ng/mL"}, {"measurement": "Testis testosterone (ng/testis)", "setting": "[2]; hypoandrogenic male rats", "value": "48.0 ± 15.2", "unit": "ng/testis"}, {"measurement": "Pituitary LH (μg/pit)", "setting": "[2]; intact male rats", "value": "6.838 ± 2.061", "unit": "μg/pit"}, {"measurement": "Serum LH", "setting": "[2]; intact male rats", "value": "1.088 ± 0.352", "unit": "ng/mL"}, {"measurement": "Serum testosterone", "setting": "[2]; intact male rats", "value": "2.770 ± 1.421", "unit": "ng/mL"}, {"measurement": "Testis testosterone (ng/testis)", "setting": "[2]; intact male rats", "value": "112.9 ± 58.5", "unit": "ng/testis"}, {"measurement": "Body weight", "setting": "[2]; intact male rats", "value": "447 ± 38", "unit": "g"}, {"measurement": "Coaculating gland relative weight", "setting": "[2]; intact male rats", "value": "204 ± 48", "unit": "mg/kg body weight"}, {"measurement": "Seminal vesicle relative weight", "setting": "[2]; intact male rats", "value": "419 ± 59", "unit": "mg/kg body weight"}, {"measurement": "Testis relative weight", "setting": "[2]; intact male rats", "value": "4223 ± 304", "unit": "mg/kg body weight"}, {"measurement": "Ventral Prostate relative weight", "setting": "[2]; intact male rats", "value": "938 ± 148", "unit": "mg/kg body weight"}, {"measurement": "Dose-dependency of antitumor action", "setting": "[3]; HMR 3.0 versus 15.0 mg/kg", "value": "no clear dose-dependency"}, {"measurement": "Antitumor effect (growing versus stable, regressing and disappeared tumors)", "setting": "[3]; female Sprague-Dawley rats, HMR 3.0 and 15.0 mg/kg per os daily for 7.5 weeks, FIG. 4", "value": "statistically very significant"}, {"measurement": "Main excreting metabolite in urine", "setting": "[4]; male rats, 3, 15, 25 and 50 mg/kg once a day for two days, FIG. 5", "value": "enterolactone"}, {"measurement": "Relation between doses of HMR and amounts of urinary enterolactone", "setting": "[4]; male rats, 3 to 50 mg/kg", "value": "linear correlation"}, {"measurement": "Unmetabolized HMR and other metabolites (enterodiol and 7-hydroxyenterolactone) found in urine", "setting": "[4]; male rats, unchanged when daily dose increased", "value": "Only minute amounts"}]}]}
